# Reference: article PMC5218480 (PLoS ONE, 2017)
# Test system: MV-4-11 cells
# Test: Gene expression microarray analysis (Affymetrix PrimeView) and GSEA
# Assay type: cell-based, human
# Set-up: RFU PODN (11730768_x_at) / Fold change /veh PODN (11730768_x_at) / RFU LINC00158 (11744669_a_at) / Fold change /veh LINC00158 (11744669_a_at) / RFU DUSP10 (11751237_a_at) / Fold change /veh DUSP10 (11751237_a_at) / RFU ID3 (11757404_x_at) / Fold change /veh ID3 (11757404_x_at) / RFU PLEKHG5 (11737974_s_at) / Fold change /veh PLEKHG5 (11737974_s_at) / RFU LRRC4B (11730491_at) / Fold change /veh LRRC4B (11730491_at) / RFU GIMAP4 (11747438_a_at) / Fold change /veh GIMAP4 (11747438_a_at) / RFU KRT8 (11758183_x_at) / Fold change /veh KRT8 (11758183_x_at) / RFU CNN1 (11734310_a_at) / Fold change /veh CNN1 (11734310_a_at) / RFU VPS37D (11726825_at) / Fold change /veh VPS37D (11726825_at) / RFU C10orf10 (11716522_x_at) / Fold change /veh C10orf10 (11716522_x_at) / RFU KIR2DL2 /// KIR2DL4 /// KIR2DL5A /// KIR2DL5B /// KIR2DS1 /// KIR2DS2 /// KIR2DS3 /// KIR2DS4 /// KIR3DL3 /// KIR3DL3 /// KIR3DS1 (11738374_at) / Fold change /veh KIR2DL2 /// KIR2DL4 /// KIR2DL5A /// KIR2DL5B /// KIR2DS1 /// KIR2DS2 /// KIR2DS3 /// KIR2DS4 /// KIR3DL3 /// KIR3DL3 /// KIR3DS1 (11738374_at) / RFU C1QL1 (11718748_at) / Fold change /veh C1QL1 (11718748_at) / RFU TMPRSS4 (11747572_a_at) / Fold change /veh TMPRSS4 (11747572_a_at) / RFU HAMP (11756126_x_at) / Fold change /veh HAMP (11756126_x_at) / RFU RNFT2 (11725882_a_at) / Fold change /veh RNFT2 (11725882_a_at) / RFU NR4A2 (11747474_a_at) / Fold change /veh NR4A2 (11747474_a_at) / RFU ABCC12 (11746883_a_at) / Fold change /veh ABCC12 (11746883_a_at) / RFU TMEM136 (11760407_x_at) / Fold change /veh TMEM136 (11760407_x_at) / RFU CLDN22 /// WWC2 (11732394_at) / Fold change /veh CLDN22 /// WWC2 (11732394_at) / RFU HLA-DPB1 (11760878_x_at) / Fold change /veh HLA-DPB1 (11760878_x_at) / RFU SPINT1 (11716480_a_at) / Fold change /veh SPINT1 (11716480_a_at) / RFU GAP43 (11754022_s_at) / Fold change /veh GAP43 (11754022_s_at) / RFU A4GNT (11735810_at) / Fold change /veh A4GNT (11735810_at) / RFU PRB3 (11715151_x_at) / Fold change /veh PRB3 (11715151_x_at) / RFU TUBB4B (11761932_at) / Fold change /veh TUBB4B (11761932_at) / RFU CAPN14 (11732068_a_at) / Fold change /veh CAPN14 (11732068_a_at) / RFU TMCC2 (11721928_a_at) / Fold change /veh TMCC2 (11721928_a_at) / RFU IRGQ (11745062_a_at) / Fold change /veh IRGQ (11745062_a_at) / RFU FAM174B (11720279_a_at) / Fold change /veh FAM174B (11720279_a_at) / RFU TMPRSS4 (11748680_a_at) / Fold change /veh TMPRSS4 (11748680_a_at) / RFU FAM212B (11763350_a_at) / Fold change /veh FAM212B (11763350_a_at) / RFU PLEKHG5 (11743358_a_at) / Fold change /veh PLEKHG5 (11743358_a_at) / RFU ZSCAN30 (11745921_a_at) / Fold change /veh ZSCAN30 (11745921_a_at) / RFU CMKLR1 (11741424_a_at) / Fold change /veh CMKLR1 (11741424_a_at) / RFU LOC101060620 /// MAPK8IP1 (11723275_at) / Fold change /veh LOC101060620 /// MAPK8IP1 (11723275_at) / RFU SPTSSB (11747773_x_at) / Fold change /veh SPTSSB (11747773_x_at) / RFU PRSS12 (11739890_at) / Fold change /veh PRSS12 (11739890_at) / RFU BIN1 (11741810_x_at) / Fold change /veh BIN1 (11741810_x_at) / RFU WNT11 (11732464_a_at) / Fold change /veh WNT11 (11732464_a_at) / RFU C10orf10 (11716521_a_at) / Fold change /veh C10orf10 (11716521_a_at) / RFU C5orf56 (11738089_at) / Fold change /veh C5orf56 (11738089_at) / RFU CYB561 (11721691_x_at) / Fold change /veh CYB561 (11721691_x_at) / RFU ANKRD19P (11752326_a_at) / Fold change /veh ANKRD19P (11752326_a_at) / RFU OR2T12 /// OR2T33 /// OR2T8 (11738714_s_at) / Fold change /veh OR2T12 /// OR2T33 /// OR2T8 (11738714_s_at) / RFU VCAN (11748164_a_at) / Fold change /veh VCAN (11748164_a_at) / RFU JSRP1 (11732532_at) / Fold change /veh JSRP1 (11732532_at) / RFU KRTAP10-11 (11738290_x_at) / Fold change /veh KRTAP10-11 (11738290_x_at) / RFU MYO3A (11730013_a_at) / Fold change /veh MYO3A (11730013_a_at) / RFU EBF3 (11725865_a_at) / Fold change /veh EBF3 (11725865_a_at) / RFU CAMK2N1 (11719241_x_at) / Fold change /veh CAMK2N1 (11719241_x_at) / RFU C5orf56 (11738088_a_at) / Fold change /veh C5orf56 (11738088_a_at) / RFU OLFML3 (11715873_a_at) / Fold change /veh OLFML3 (11715873_a_at) / RFU LOC100653217 /// NTM (11731650_a_at) / Fold change /veh LOC100653217 /// NTM (11731650_a_at) / RFU MAPK11 (11762145_a_at) / Fold change /veh MAPK11 (11762145_a_at) / RFU FIZ1 (11724087_x_at) / Fold change /veh FIZ1 (11724087_x_at) / RFU OASL (11726364_x_at) / Fold change /veh OASL (11726364_x_at) / RFU SOX15 (11748057_x_at) / Fold change /veh SOX15 (11748057_x_at) / RFU CD79A (11719716_a_at) / Fold change /veh CD79A (11719716_a_at) / RFU HIST1H1D (11736915_at) / Fold change /veh HIST1H1D (11736915_at) / RFU CASKIN2 (11723855_a_at) / Fold change /veh CASKIN2 (11723855_a_at) / RFU LOC730098 (11760151_x_at) / Fold change /veh LOC730098 (11760151_x_at) / RFU OR4N2 (11742367_at) / Fold change /veh OR4N2 (11742367_at) / RFU PRRT2 (11749266_a_at) / Fold change /veh PRRT2 (11749266_a_at) / RFU SNX32 (11753110_a_at) / Fold change /veh SNX32 (11753110_a_at) / RFU CDHR5 (11726645_a_at) / Fold change /veh CDHR5 (11726645_a_at) / RFU RCAN1 (11760418_a_at) / Fold change /veh RCAN1 (11760418_a_at) / RFU FAM167A (11723789_a_at) / Fold change /veh FAM167A (11723789_a_at) / RFU FAM26E (11764081_at) / Fold change /veh FAM26E (11764081_at) / RFU ISYNA1 (11749810_s_at) / Fold change /veh ISYNA1 (11749810_s_at) / RFU ACY1 (11761880_at) / Fold change /veh ACY1 (11761880_at) / RFU 11764098_at / Fold change /veh 11764098_at / RFU SAMD14 (11745864_x_at) / Fold change /veh SAMD14 (11745864_x_at) / RFU NPB (11741838_a_at) / Fold change /veh NPB (11741838_a_at) / RFU TMPRSS6 (11731388_a_at) / Fold change /veh TMPRSS6 (11731388_a_at) / RFU KRTAP10-2 (11738614_at) / Fold change /veh KRTAP10-2 (11738614_at) / RFU ARHGAP8 /// PRR5-ARHGAP8 (11727945_x_at) / Fold change /veh ARHGAP8 /// PRR5-ARHGAP8 (11727945_x_at) / RFU KRTAP5-7 /// NADSYN1 (11734609_at) / Fold change /veh KRTAP5-7 /// NADSYN1 (11734609_at) / RFU RASL12 (11751679_a_at) / Fold change /veh RASL12 (11751679_a_at) / RFU CDKN2B (11736163_a_at) / Fold change /veh CDKN2B (11736163_a_at) / RFU PRF1 (11729649_at) / Fold change /veh PRF1 (11729649_at) / RFU, ZNF638 /// ZNF638-IT1 / Fold change vs veh, ZNF638 /// ZNF638-IT1 / RFU, PANK3 / Fold change vs veh, PANK3 / RFU, SH3YL1 / Fold change vs veh, SH3YL1 / RFU, ZEB2 / Fold change vs veh, ZEB2 / RFU, NRIP1 / Fold change vs veh, NRIP1 / RFU, PTTG1IP / Fold change vs veh, PTTG1IP / RFU, CAPN2 / Fold change vs veh, CAPN2 / RFU, MED14 / Fold change vs veh, MED14 / RFU, SNORA58 / Fold change vs veh, SNORA58 / RFU, C1orf63 / Fold change vs veh, C1orf63 / RFU, LRRFIP1 / Fold change vs veh, LRRFIP1 / RFU, NDUFAF7 / Fold change vs veh, NDUFAF7 / RFU, SLC12A2 / Fold change vs veh, SLC12A2 / RFU, IBTK / Fold change vs veh, IBTK / RFU, ESF1 / Fold change vs veh, ESF1 / Fold change vs veh, TMEM50B / RFU, TAOK1 / Fold change vs veh, TAOK1 / RFU, ACBD3 / Fold change vs veh, ACBD3 / RFU, TMA16 / Fold change vs veh, TMA16 / RFU, RWDD3 / Fold change vs veh, RWDD3 / RFU, BCAT1 / Fold change vs veh, BCAT1 / RFU, EDEM3 / Fold change vs veh, EDEM3 / RFU, TMEM33 / Fold change vs veh, TMEM33 / RFU, WDR75 / Fold change vs veh, WDR75 / RFU, AHCTF1 / Fold change vs veh, AHCTF1 / RFU, TFRC / Fold change vs veh, TFRC / RFU, ZDHHC17 / Fold change vs veh, ZDHHC17 / RFU, NOM1 / Fold change vs veh, NOM1 / RFU, ARL8B / Fold change vs veh, ARL8B / RFU, ZBTB11 / Fold change vs veh, ZBTB11 / RFU, TAMM41 / Fold change vs veh, TAMM41 / RFU, KIAA1704 /// LOC100996395 / Fold change vs veh, KIAA1704 /// LOC100996395 / RFU, ING1 / Fold change vs veh, ING1 / RFU, TRMT61B / Fold change vs veh, TRMT61B / RFU, FUBP3 / Fold change vs veh, FUBP3 / RFU, TP53 / Fold change vs veh, TP53 / RFU, TNKS2 / Fold change vs veh, TNKS2 / RFU, ZFP14 / Fold change vs veh, ZFP14 / RFU, ACTR2 / Fold change vs veh, ACTR2 / RFU, PPP3R1 / Fold change vs veh, PPP3R1 / RFU, PIK3R1 / Fold change vs veh, PIK3R1 / RFU, HNRNPA1 / Fold change vs veh, HNRNPA1 / RFU, RNF170 / Fold change vs veh, RNF170 / RFU, ZNF28 / Fold change vs veh, ZNF28 / RFU, RNGTT / Fold change vs veh, RNGTT / RFU, OGT / Fold change vs veh, OGT / RFU, BRD1 / Fold change vs veh, BRD1 / RFU, MARS / Fold change vs veh, MARS / RFU, ZNF655 / Fold change vs veh, ZNF655 / RFU, FAHD1 / Fold change vs veh, FAHD1 / RFU, BDP1 / Fold change vs veh, BDP1 / RFU, LRRCC1 / Fold change vs veh, LRRCC1 / RFU, ARID1A / Fold change vs veh, ARID1A / RFU, ZNF146 / Fold change vs veh, ZNF146 / RFU, ZNF330 / Fold change vs veh, ZNF330 / RFU, GPN3 / Fold change vs veh, GPN3 / RFU, C9orf123 / Fold change vs veh, C9orf123 / RFU, N4BP2L2 / Fold change vs veh, N4BP2L2 / RFU, ARFIP1 / Fold change vs veh, ARFIP1 / RFU, FAM179B / Fold change vs veh, FAM179B / RFU, BCL10 / Fold change vs veh, BCL10 / RFU, UHRF1BP1L / Fold change vs veh, UHRF1BP1L / RFU, BET1 / Fold change vs veh, BET1 / RFU, CNOT2 / Fold change vs veh, CNOT2 / RFU, ZNF268 / Fold change vs veh, ZNF268 / Fold change vs veh, ZNF507 / RFU, DGCR2 / Fold change vs veh, DGCR2 / RFU, WDSUB1 / Fold change vs veh, WDSUB1 / Fold change vs veh, HSP90B1 /// MIR3652 / RFU, ADSS / Fold change vs veh, ADSS / RFU, GK / Fold change vs veh, GK / RFU, ZNF148 / Fold change vs veh, ZNF148 / RFU, TAF9 / Fold change vs veh, TAF9 / RFU, SLC1A5 / Fold change vs veh, SLC1A5 / RFU, SLMO2 / Fold change vs veh, SLMO2 / RFU, ABCC4 / Fold change vs veh, ABCC4 / RFU, LOC101060439 /// RAP1B / Fold change vs veh, LOC101060439 /// RAP1B / RFU, RFX7 / Fold change vs veh, RFX7 / RFU, GTPBP10 / Fold change vs veh, GTPBP10 / RFU, CNEP1R1 / Fold change vs veh, CNEP1R1 / RFU, BIVM-ERCC5 /// ERCC5 / Fold change vs veh, BIVM-ERCC5 /// ERCC5 / RFU, ILF3 / Fold change vs veh, ILF3 / RFU 11762660_at / Fold change /veh 11762660_at / RFU VCAN (11757783_s_at) / Fold change /veh VCAN (11757783_s_at) / RFU DDX43 (11728927_at) / Fold change /veh DDX43 (11728927_at) / RFU KRT8 (11758188_x_at) / Fold change /veh KRT8 (11758188_x_at) / RFU NKD1 (11759106_at) / Fold change /veh NKD1 (11759106_at) / RFU SRD5A1 (11742802_a_at) / Fold change /veh SRD5A1 (11742802_a_at) / RFU TPSAB1 /// TPSB2 (11721975_s_at) / Fold change /veh TPSAB1 /// TPSB2 (11721975_s_at) / RFU GSTM3 (11746129_a_at) / Fold change /veh GSTM3 (11746129_a_at) / RFU IL23R (11737362_x_at) / Fold change /veh IL23R (11737362_x_at) / RFU TMEM51 (11727254_a_at) / Fold change /veh TMEM51 (11727254_a_at) / RFU PIWIL2 (11732686_x_at) / Fold change /veh PIWIL2 (11732686_x_at) / RFU ORM1 (11744905_x_at) / Fold change /veh ORM1 (11744905_x_at) / RFU CCDC152 (11743942_at) / Fold change /veh CCDC152 (11743942_at) / RFU ECM1 (11717891_a_at) / Fold change /veh ECM1 (11717891_a_at) / RFU IL23R (11748794_a_at) / Fold change /veh IL23R (11748794_a_at) / RFU TNFAIP8L3 (11732012_x_at) / Fold change /veh TNFAIP8L3 (11732012_x_at) / RFU MBOAT4 (11741988_at) / Fold change /veh MBOAT4 (11741988_at) / RFU 11764193_at / Fold change /veh 11764193_at / RFU TMEM53 (11763286_at) / Fold change /veh TMEM53 (11763286_at) / RFU MAGEB2 (11727129_at) / Fold change /veh MAGEB2 (11727129_at) / RFU TMEM200A (11744735_a_at) / Fold change /veh TMEM200A (11744735_a_at) / RFU CCDC152 (11751479_a_at) / Fold change /veh CCDC152 (11751479_a_at) / RFU FAM211A (11726209_a_at) / Fold change /veh FAM211A (11726209_a_at) / RFU RGS16 (11746705_a_at) / Fold change /veh RGS16 (11746705_a_at) / RFU VCAN (11755009_s_at) / Fold change /veh VCAN (11755009_s_at) / RFU RHOB (11743442_s_at) / Fold change /veh RHOB (11743442_s_at) / RFU RGS16 (11720943_a_at) / Fold change /veh RGS16 (11720943_a_at) / RFU RGS16 (11720944_at) / Fold change /veh RGS16 (11720944_at) / RFU, VPS4B / Fold change vs veh, VPS4B / RFU, CREB1 / Fold change vs veh, CREB1 / RFU, DNAJC13 / Fold change vs veh, DNAJC13 / RFU, GNAQ / Fold change vs veh, GNAQ / RFU, CDK5R1 / Fold change vs veh, CDK5R1 / RFU, ZRANB3 / Fold change vs veh, ZRANB3 / RFU, CUL4A / Fold change vs veh, CUL4A / RFU, CCNY / Fold change vs veh, CCNY / RFU, UFL1 / Fold change vs veh, UFL1 / RFU, COG3 / Fold change vs veh, COG3 / RFU, DIAPH2 / Fold change vs veh, DIAPH2 / RFU, SKA2 / Fold change vs veh, SKA2 / RFU, AFF3 / Fold change vs veh, AFF3 / RFU, LMF1 / Fold change vs veh, LMF1 / RFU, IPO11 / Fold change vs veh, IPO11 / RFU, DFFB / Fold change vs veh, DFFB / RFU, FOXP1 / Fold change vs veh, FOXP1 / RFU, CARD8 / Fold change vs veh, CARD8 / RFU, STRN3 / Fold change vs veh, STRN3 / RFU, ADK / Fold change vs veh, ADK / RFU, RASSF2 / Fold change vs veh, RASSF2 / RFU, WIPF1 / Fold change vs veh, WIPF1 / RFU, LARP1B / Fold change vs veh, LARP1B / RFU, RASA1 / Fold change vs veh, RASA1 / RFU, RB1 / Fold change vs veh, RB1 / RFU, PPFIA1 / Fold change vs veh, PPFIA1 / RFU, MAT2A / Fold change vs veh, MAT2A / RFU, CCT5 / Fold change vs veh, CCT5 / RFU, WDR92 / Fold change vs veh, WDR92 / RFU, CUX1 / Fold change vs veh, CUX1 / RFU, TTC7A / Fold change vs veh, TTC7A / RFU, TMEM135 / Fold change vs veh, TMEM135 / RFU, DEPTOR / Fold change vs veh, DEPTOR / RFU, CPM / Fold change vs veh, CPM / RFU, DNAJB6 / Fold change vs veh, DNAJB6 / RFU, CACNA2D3 / Fold change vs veh, CACNA2D3 / RFU, DTX4 / Fold change vs veh, DTX4 / RFU, TFCP2 / Fold change vs veh, TFCP2 / RFU, GMCL1 /// GMCL1P1 / Fold change vs veh, GMCL1 /// GMCL1P1 / RFU, AEBP2 / Fold change vs veh, AEBP2 / RFU, SNHG1 /// SNORD22 /// SNORD25 /// SNORD26 /// SNORD27 /// SNORD28 /// SNORD29 /// SNORD31 / Fold change vs veh, SNHG1 /// SNORD22 /// SNORD25 /// SNORD26 /// SNORD27 /// SNORD28 /// SNORD29 /// SNORD31 / Fold change (Aza/veh), C12orf56 (ProbeSet 11735607_a_at) / Fold change (ACY-1035/veh), C12orf56 (ProbeSet 11735607_a_at) / Fold change (Aza/veh), FGFR1OP (ProbeSet 11751329_s_at) / Fold change (ACY-1035/veh), FGFR1OP (ProbeSet 11751329_s_at) / Fold change (Aza/veh), VPS36 (ProbeSet 11739960_a_at) / Fold change (ACY-1035/veh), VPS36 (ProbeSet 11739960_a_at) / RFU SYPL1 (11715823_x_at) / Fold change /veh SYPL1 (11715823_x_at) / RFU IGFBP7 (11715501_s_at) / Fold change /veh IGFBP7 (11715501_s_at) / RFU REEP3 (11722064_at) / Fold change /veh REEP3 (11722064_at) / RFU IGLL1 (11728026_x_at) / Fold change /veh IGLL1 (11728026_x_at): dose or concentration left out as unconfirmed
# Details: MV-4-11 cells, 48 hours
smiles,measurement,value
Nc1ccc(-c2cccs2)cc1NC(=O)c1ccc2c(c1)cc(C1CC1)n2CCN1CCOCC1 [ACY-1035],Fold change /veh TMEM200A (11744735_a_at),1.19
